Test results reported in patent publication US20230093861A1, “RAPAMYCIN ANALOGS AS MTOR INHIBITORS” (Revolution Medicines, Inc., priority 2017, published 2023).

What was measured:
P-P70S6K (T389) = assay: Cell based AlphaLISA assay, inhibition of P-P70S6K (T389) (mTORC1 substrate phosphorylation) in MDA-MB-468 cells; conditions: Homo sapiens, 4 h, AlphaLISA, two to four hours at 37° C., read-out: pIC50 for Inhibition of mTORC1 and mTORC2 Substrate Phosphorylation, P-P70S6K-(T389) (converted)
Outline: (§1)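 Cells are exposed to inhibitor, then the assay buffer is taken off and kit lysis buffer added. Lysates undergo AlphaLISA SureFire Ultra detection in duplicate.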

P-4E-BP1 (T37/46) = assay: Cell based AlphaLISA assay, inhibition of P-4E-BP1 (T37/46) (mTORC1 substrate phosphorylation) in MDA-MB-468 cells; conditions: Homo sapiens, MDA-MB-468, 4 h, AlphaLISA, two to four hours at 37° C., read-out: pIC50 for Inhibition of mTORC1 and mTORC2 Substrate Phosphorylation, P-4E-BP1-(T37/46) (converted)
Outline: as §1

P-Akt (S473) = assay: Cell based AlphaLISA assay, inhibition of P-Akt (S473) (mTORC2 substrate phosphorylation) in MDA-MB-468 cells; conditions: Homo sapiens, MDA-MB-468, 4 h, AlphaLISA, two to four hours at 37° C., read-out: pIC50 for Inhibition of mTORC1 and mTORC2 Substrate Phosphorylation, p-AKT 1/2/3 -(S473) (converted)
Outline: as §1

## CO[C@H]1C[C@@H]2CC[C@@H](C)[C@@](O)(O2)C(=O)C(=O)N2CCCC[C@H]2C(=O)O[C@H]([C@H](C)C[C@@H]2CC[C@@H](O)[C@H](OC)C2)C[C@@H](O)[C@H](C)/C=C(\C)[C@@H](O)[C@@H](OC)C(=NOCc2cn(-c3cnc(N4CCN(c5ncc(C(=O)NCCOCCC(=O)NCCCCn6nc(-c7ccc8oc(N)nc8c7)c7c(N)ncnc76)cn5)CC4CO)nc3)nn2)[C@H](C)C[C@H](C)/C=C/C=C/C=C/1C (stereo partly drawn) [Example 194]
P-P70S6K (T389)
  IC50: < 1 nM
P-4E-BP1 (T37/46)
  IC50: > 1000 nM
P-Akt (S473)
  IC50: > 1000 nM

## CO[C@H]1C[C@@H]2CC[C@@H](C)[C@@](O)(O2)C(=O)C(=O)N2CCCC[C@H]2C(=O)O[C@H]([C@H](C)C[C@@H]2CC[C@H](n3cc(CCCC(=O)NCCOCCOCCOCCC(=O)NCCOCCOCCOCCC(=O)NCCCCn4nc(-c5cc6cc(O)ccc6[nH]5)c5c(N)ncnc54)nn3)[C@H](OC)C2)C[C@@H](OC)[C@H](C)/C=C(\C)[C@@H](O)[C@@H](OC)C(=O)[C@H](C)C[C@H](C)/C=C/C=C/C=C/1C [Example 179]
P-P70S6K (T389)
  IC50: 1 to 10 nM
P-4E-BP1 (T37/46)
  IC50: 31.6 to 1000 nM
P-Akt (S473)
  IC50: > 1000 nM

## CCO[C@@H]1C[C@@H]([C@H](C)C[C@@H]2CC[C@H](n3cc(COC(=O)NCCOCCOCCOCCC(=O)NCCOCCOCCC(=O)NCCCCn4nc(-c5ccc6oc(N)nc6c5)c5c(N)ncnc54)nn3)[C@H](OC)C2)OC(=O)[C@@H]2CCCCN2C(=O)C(=O)[C@]2(O)O[C@@H](CC[C@H]2C)C[C@H](OC)/C(C)=C/C=C/C=C/[C@@H](C)C[C@@H](C)C(=O)[C@H](OC)[C@H](O)/C(C)=C/[C@H]1C [Example 147]
P-P70S6K (T389)
  IC50: 10 to 1000 nM
P-4E-BP1 (T37/46)
  IC50: 31.6 to 1000 nM
P-Akt (S473)
  IC50: > 1000 nM

## CO[C@H]1C[C@@H]2CC[C@@H](C)[C@@](O)(O2)C(=O)C(=O)N2CCCC[C@H]2C(=O)O[C@H]([C@H](C)C[C@@H]2CC[C@H](n3cc(CCCC(=O)NCCOCCOCCOCCC(=O)NCCOCCOCCOCCC(=O)NCCCCn4nc(-c5ccc6oc(N)nc6c5)c5c(N)ncnc54)nn3)[C@H](OC)C2)CC(=O)[C@H](C)/C=C(\C)[C@@H](O)[C@@H](OC)C(=O)[C@H](C)C[C@H](C)/C=C/C=C/C=C/1C [Example 130]
P-P70S6K (T389)
  IC50: 1 to 10 nM
P-4E-BP1 (T37/46)
  IC50: 3.16 to 31.6 nM
P-Akt (S473)
  IC50: 3.16 to 31.6 nM

## CO[C@H]1C[C@@H]2CC[C@@H](C)[C@@](O)(O2)C(=O)C(=O)N2CCCC[C@H]2C(=O)O[C@H]([C@H](C)C[C@@H]2CC[C@H](n3cc(COC(=O)NCCOCCOCCOCCC(=O)NCCOCCOCCOCCC(=O)NCCCCn4nc(-c5cc6cc(O)ccc6[nH]5)c5c(N)ncnc54)nn3)[C@H](OC)C2)C/C(=N/OCc2ccccc2)[C@H](C)/C=C(\C)[C@@H](O)[C@@H](OC)C(=O)[C@H](C)C[C@H](C)/C=C/C=C/C=C/1C [Example 157]
P-P70S6K (T389)
  IC50: > 1000 nM
P-4E-BP1 (T37/46)
  IC50: > 1000 nM
P-Akt (S473)
  IC50: > 1000 nM

## CO[C@H]1C[C@@H]2CC[C@@H](C)[C@@](O)(O2)C(=O)C(=O)N2CCCC[C@H]2C(=O)O[C@H]([C@H](C)C[C@@H]2CC[C@H](n3cc(-c4cnc(N5CCN(c6ncc(C(=O)NCCOCCOCCOCCOCCOCCC(=O)NCCCCn7nc(-c8cc9cc(O)ccc9[nH]8)c8c(N)ncnc87)cn6)CC5)nc4)nn3)[C@H](OC)C2)CC(=O)[C@H](C)/C=C(\C)[C@@H](O)[C@@H](OC)C(=O)[C@H](C)C[C@H](C)/C=C/C=C/C=C/1C [Example 119]
P-P70S6K (T389)
  IC50: < 1 nM
P-4E-BP1 (T37/46)
  IC50: > 1000 nM
P-Akt (S473)
  IC50: > 1000 nM

## CO[C@H]1C[C@@H]2CC[C@@H](C)[C@@](O)(O2)C(=O)C(=O)N2CCCC[C@H]2C(=O)O[C@H]([C@H](C)C[C@@H]2CC[C@H](n3cc(-c4cnc(N5CCN(c6ncc(C(=O)NCCOCCOCCOCCOCCOCCC(=O)NCCCCn7nc(-c8ccc9oc(N)nc9c8)c8c(N)ncnc87)cn6)CC5)nc4)nn3)[C@H](OC)C2)CC(=O)[C@H](C)/C=C(\C)[C@@H](O)[C@@H](OC)C(=O)[C@H](C)C[C@H](C)/C=C/C=C/C=C/1C [Example 118]
P-P70S6K (T389)
  IC50: < 1 nM
P-4E-BP1 (T37/46)
  IC50: < 3.16 nM
P-Akt (S473)
  IC50: 3.16 to 31.6 nM

## CO/N=C1/C[C@@H]([C@H](C)C[C@@H]2CC[C@H](n3cc(CCCC(=O)NCCOCCOCCOCCC(=O)NCCOCCOCCOCCC(=O)NCCCCn4nc(-c5ccc6oc(N)nc6c5)c5c(N)ncnc54)nn3)[C@H](OC)C2)OC(=O)[C@@H]2CCCCN2C(=O)C(=O)[C@]2(O)O[C@@H](CC[C@H]2C)C[C@H](OC)/C(C)=C/C=C/C=C/[C@@H](C)C[C@@H](C)C(=O)[C@H](OC)[C@H](O)/C(C)=C/[C@H]1C [Example 171]
P-P70S6K (T389)
  IC50: 10 to 1000 nM
P-4E-BP1 (T37/46)
  IC50: 31.6 to 1000 nM
P-Akt (S473)
  IC50: > 1000 nM

## CO[C@H]1C[C@@H]2CC[C@@H](C)[C@@](O)(O2)C(=O)C(=O)N2CCCC[C@H]2C(=O)O[C@H]([C@H](C)C[C@@H]2CC[C@H](n3cc(CCCC(=O)NCCOCCOCCOCCC(=O)NCCOCCOCCOCCOCCC(=O)NCCCCn4nc(-c5cc6cc(O)ccc6[nH]5)c5c(N)ncnc54)nn3)[C@H](OC)C2)CC(=O)[C@H](C)/C=C(\C)[C@@H](O)[C@@H](OC)C(=O)[C@H](C)C[C@H](C)/C=C/C=C/C=C/1C [Example 133]
P-P70S6K (T389)
  IC50: 1 to 10 nM
P-4E-BP1 (T37/46)
  IC50: 3.16 to 31.6 nM
P-Akt (S473)
  IC50: 31.6 to 1000 nM

## CO[C@H]1C[C@@H]2CC[C@@H](C)[C@@](O)(O2)C(=O)C(=O)N2CCCC[C@H]2C(=O)O[C@H]([C@H](C)C[C@@H]2CC[C@H](n3cc(-c4cccc(C(=O)NCCOCCOCCOCCC(=O)NCCOCCOCCOCCC(=O)NCCCCn5nc(-c6cc7cc(O)ccc7[nH]6)c6c(N)ncnc65)c4)nn3)[C@H](OC)C2)CC(=O)[C@H](C)/C=C(\C)[C@@H](O)[C@@H](OC)C(=O)[C@H](C)C[C@H](C)/C=C/C=C/C=C/1C [Example 138]
P-P70S6K (T389)
  IC50: 1 to 10 nM
P-4E-BP1 (T37/46)
  IC50: > 1000 nM
P-Akt (S473)
  IC50: 31.6 to 1000 nM
